Source: the NIST ThermoML archive (doi:10.1021/acs.jced.8b00132)
Where “and” joins values, the source holds several entries; their conditions need not be identical. Equal values may be shown once.

O=C(C(F)(F)C(F)(F)F)C(F)(C(F)(F)F)C(F)(F)F [dodecafluoro-2-methylpentan-3-one]
Details	thermal conductivity
329.25 K, 73 kPa, Gas, hot wire	0.0137 W/m/K
329.26 K, 72 kPa, Gas, hot wire	0.01377 W/m/K and 0.01374 W/m/K
329.31 K, 120 kPa, Gas, hot wire	0.01393 W/m/K
329.32 K, 120 kPa, Gas, hot wire	0.01375 W/m/K
329.34 K, 27 kPa, Gas, hot wire	0.01343 W/m/K
329.35 K, 27 kPa, Gas, hot wire	0.01345 W/m/K
329.36 K, 26 kPa, Gas, hot wire	0.01404 W/m/K
329.37 K, 26 kPa, Gas, hot wire	0.01398 W/m/K
329.38 K, 120 kPa, Gas, hot wire	0.01375 W/m/K
329.39 K, 105 kPa, Gas, hot wire	0.01386 W/m/K
329.39 K, 120 kPa, Gas, hot wire	0.01376 W/m/K
329.4 K, 105 kPa, Gas, hot wire	0.01386 W/m/K
329.42 K, 73 kPa, Gas, hot wire	0.01371 W/m/K and 0.01373 W/m/K
329.43 K, 72 kPa, Gas, hot wire	0.01372 W/m/K and 0.01375 W/m/K
329.43 K, 67798 kPa, Liquid, transient hot wire	0.07589 W/m/K
329.43 K, 67830 kPa, Liquid, transient hot wire	0.07595 W/m/K
329.47 K, 120 kPa, Gas, hot wire	0.01394 W/m/K
329.48 K, 120 kPa, Gas, hot wire	0.01386 W/m/K
329.48 K, 57461 kPa, Liquid, transient hot wire	0.0733 W/m/K
329.49 K, 57474 kPa, Liquid, transient hot wire	0.07325 W/m/K
329.5 K, 26 kPa, Gas, hot wire	0.01349 W/m/K
329.51 K, 27 kPa, Gas, hot wire	0.01348 W/m/K
329.52 K, 26 kPa, Gas, hot wire	0.01408 W/m/K
329.53 K, 26 kPa, Gas, hot wire	0.01404 W/m/K
329.56 K, 46607 kPa, Liquid, transient hot wire	0.07024 W/m/K
329.56 K, 46614 kPa, Liquid, transient hot wire	0.07022 W/m/K
329.57 K, 105 kPa, Gas, hot wire	0.01395 W/m/K and 0.01394 W/m/K
329.57 K, 120 kPa, Gas, hot wire	0.01381 W/m/K
329.58 K, 120 kPa, Gas, hot wire	0.01371 W/m/K
329.6 K, 72 kPa, Gas, hot wire	0.01381 W/m/K
329.6 K, 73 kPa, Gas, hot wire	0.01369 W/m/K and 0.01372 W/m/K
329.6 K, 67772 kPa, Liquid, transient hot wire	0.07593 W/m/K
329.6 K, 67790 kPa, Liquid, transient hot wire	0.07593 W/m/K
329.61 K, 72 kPa, Gas, hot wire	0.01376 W/m/K
329.63 K, 36730 kPa, Liquid, transient hot wire	0.06726 W/m/K
329.63 K, 36735 kPa, Liquid, transient hot wire	0.06721 W/m/K
329.65 K, 120 kPa, Gas, hot wire	0.01392 W/m/K
329.66 K, 119 kPa, Gas, hot wire	0.0139 W/m/K
329.66 K, 57448 kPa, Liquid, transient hot wire	0.07322 W/m/K
329.68 K, 27 kPa, Gas, hot wire	0.01357 W/m/K
329.68 K, 27945 kPa, Liquid, transient hot wire	0.06427 W/m/K
329.68 K, 27946 kPa, Liquid, transient hot wire	0.0643 W/m/K
329.68 K, 57441 kPa, Liquid, transient hot wire	0.07323 W/m/K
329.69 K, 27 kPa, Gas, hot wire	0.0135 W/m/K
329.7 K, 26 kPa, Gas, hot wire	0.01403 W/m/K and 0.01401 W/m/K
329.74 K, 20516 kPa, Liquid, transient hot wire	0.0619 W/m/K
329.74 K, 20518 kPa, Liquid, transient hot wire	0.0616 W/m/K
329.74 K, 46598 kPa, Liquid, transient hot wire	0.07033 W/m/K
329.74 K, 46602 kPa, Liquid, transient hot wire	0.07022 W/m/K
329.75 K, 104 kPa, Gas, hot wire	0.01402 W/m/K
329.76 K, 104 kPa, Gas, hot wire	0.01399 W/m/K
329.77 K, 120 kPa, Gas, hot wire	0.01378 W/m/K
329.79 K, 73 kPa, Gas, hot wire	0.01373 W/m/K
329.79 K, 120 kPa, Gas, hot wire	0.01373 W/m/K
329.8 K, 14125 kPa, Liquid, transient hot wire	0.05898 W/m/K
329.8 K, 14126 kPa, Liquid, transient hot wire	0.05901 W/m/K
329.8 K, 67755 kPa, Liquid, transient hot wire	0.07593 W/m/K
329.81 K, 67741 kPa, Liquid, transient hot wire	0.07589 W/m/K
329.82 K, 36726 kPa, Liquid, transient hot wire	0.06718 W/m/K
329.82 K, 36730 kPa, Liquid, transient hot wire	0.0673 W/m/K
329.83 K, 118 kPa, Gas, hot wire	0.01407 W/m/K
329.84 K, 118 kPa, Gas, hot wire	0.01403 W/m/K
329.85 K, 73 kPa, Gas, hot wire	0.01336 W/m/K
329.86 K, 72 kPa, Gas, hot wire	0.01334 W/m/K
329.86 K, 8619 kPa, Liquid, transient hot wire	0.05649 W/m/K
329.86 K, 57414 kPa, Liquid, transient hot wire	0.07321 W/m/K
329.86 K, 57423 kPa, Liquid, transient hot wire	0.07327 W/m/K
329.87 K, 27 kPa, Gas, hot wire	0.01359 W/m/K and 0.01357 W/m/K
329.87 K, 8621 kPa, Liquid, transient hot wire	0.05651 W/m/K
329.87 K, 27941 kPa, Liquid, transient hot wire	0.06427 W/m/K
329.88 K, 27942 kPa, Liquid, transient hot wire	0.06429 W/m/K
329.91 K, 4467 kPa, Liquid, transient hot wire	0.05452 W/m/K
329.91 K, 4470 kPa, Liquid, transient hot wire	0.05445 W/m/K
329.94 K, 26 kPa, Gas, hot wire	0.01354 W/m/K and 0.01352 W/m/K
329.94 K, 20524 kPa, Liquid, transient hot wire	0.06153 W/m/K
329.94 K, 46588 kPa, Liquid, transient hot wire	0.07021 W/m/K
329.94 K, 46601 kPa, Liquid, transient hot wire	0.07018 W/m/K
329.95 K, 20523 kPa, Liquid, transient hot wire	0.06156 W/m/K
329.97 K, 120 kPa, Gas, hot wire	0.01385 W/m/K
329.97 K, 177 kPa, Liquid, transient hot wire	0.05208 W/m/K
329.97 K, 178 kPa, Liquid, transient hot wire	0.05208 W/m/K
329.99 K, 120 kPa, Gas, hot wire	0.01382 W/m/K
329.99 K, 180 kPa, Liquid, transient hot wire	0.05206 W/m/K
329.99 K, 67709 kPa, Liquid, transient hot wire	0.0759 W/m/K
